According to patent EP3442964B1, “NOVEL N-[(PYRIMIDINYLAMINO)PROPANYL]-AND N [(PYRAZINYLAMINO)PROPANYL]ARYLCARBOXAMIDES” (Boehringer Ingelheim International GmbH, priority 2016, dated 2017):
Read-outs that look alike come from different tables or passages of the source.

Legend:
[1] = target: T1, human MDR1 P-gp (Homo sapiens, UniProt P08183); assay: Assay D: efflux in MDCK cells transfected with the human MDR1 gene; type: in vitro ADME; conditions: MDCK-MDR1 monolayers, pH 7.4, 37°C
T1 construct: expressed in transfected cells; host or cells: MDCK (MDCK-MDR1)
Description: The MDCK assay provides information on the potential of a compound to pass the blood brain barrier. Permeability measurements across polarized, confluent MDCK-MDR1 cell monolayers grown on permeable filter supports are used as an in vitro absorption model: apparent permeability coefficients (PE) of the compounds across the MDCK-MDR1 cell monolayers are measured (pH 7.4, 37°C) in apical-to-basal (AB) and basal-to-apical (BA) transport direction. The AB permeability (PEAB) represents drug absorption from the blood into the brain and the BA permeability (PEBA) drug efflux from the brain back into the blood via both, passive permeability as well as active transport mechanisms mediated by efflux and uptake transporters that are expressed on the MDCK-MDR1 cells, predominantly by the overexpressed human MDR1 P-gp. Identical or similar permeabilities in both transport directions indicate passive permeation, vectorial permeability points to additional active transport mechanisms. Higher PEBA than PEAB (PEBA/PEAB > 5) indicates the involvement of active efflux mediated by MDR1 P-gp, which might compromises the goal to achieve sufficient brain exposure. Therefore this assay provides valuable support for selection of compounds applicable for further in vivo testing. High permeability not limited by efflux at the blood brain barrier is a favourable characteristic for compounds that are to be used for drugs acting primarily in the CNS
Apparent permeability coefficients (PE) of the compounds across the MDCK-MDR1 cell monolayers are measured (pH 7.4, 37°C) in apical-to-basal (AB) and basal-to-apical (BA) transport direction. AB permeability (PEAB) represents drug absorption from the blood into the brain and BA permeability (PEBA) drug efflux from the brain back into the blood via both passive permeability as well as active transport mechanisms mediated by efflux and uptake transporters that are expressed on the MDCK-MDR1 cells, predominantly by the overexpressed human MDR1 P-gp. The compounds are assigned to permeability/absorption classes by comparison of the AB permeabilities with the AB permeabilities of reference compounds with known in vitro permeability and oral absorption in the human. Identical or similar permeabilities in both transport directions indicate passive permeation, vectorial permeability points to additional active transport mechanisms. Higher PEBA than PEAB indicates the involvement of active efflux mediated by MDR1 P-gp. Active transport is concentration- dependently saturable.
MDCK-MDR1 cells (1-2 x 10e5 cells/1 cm2 area) are seeded on filter inserts (Costar transwell polycarbonate or PET filters, 0.4 µm pore size) and cultured (DMEM) for 7 days. Subsequently, the MDR1 expression is boosted by culturing the cells with 5 mM sodium butyrate in full medium for 2 days. Compounds are dissolved in appropriate solvent (like DMSO, 1 -20 mM stock solutions). Stock solutions are diluted with HTP-4 buffer (128.13 mM NaCl, 5.36 mM KCI, 1 mM MgSO4, 1.8 mM CaCl2, 4.17 mM NaHCO3, 1.19 mM Na2HPO4 x 7H2O, 0.41 mM NaH2PO4xH2O, 15 mM HEPES, 20 mM glucose, 0.25 % BSA, pH 7.4) to prepare the transport solutions (0.1 - 300 µM compound, final DMSO <= 0.5 %). The transport solution (TL) is applied to the apical or basolateral donor side for measuring A-B or B-A permeability (3 filter replicates), respectively. The receiver side contains the same buffer as the donor side. Samples are collected at the start and end of experiment from the donor and at various time intervals for up to 2 hours also from the receiver side for concentration measurement by HPLC-MS/MS or scintillation counting. Sampled receiver volumes are replaced with fresh receiver solution.

[2] = target: T2, human orexin 2 receptor (Homo sapiens, UniProt O43614); type: cell-based
T2 sequence (O43614 1-444): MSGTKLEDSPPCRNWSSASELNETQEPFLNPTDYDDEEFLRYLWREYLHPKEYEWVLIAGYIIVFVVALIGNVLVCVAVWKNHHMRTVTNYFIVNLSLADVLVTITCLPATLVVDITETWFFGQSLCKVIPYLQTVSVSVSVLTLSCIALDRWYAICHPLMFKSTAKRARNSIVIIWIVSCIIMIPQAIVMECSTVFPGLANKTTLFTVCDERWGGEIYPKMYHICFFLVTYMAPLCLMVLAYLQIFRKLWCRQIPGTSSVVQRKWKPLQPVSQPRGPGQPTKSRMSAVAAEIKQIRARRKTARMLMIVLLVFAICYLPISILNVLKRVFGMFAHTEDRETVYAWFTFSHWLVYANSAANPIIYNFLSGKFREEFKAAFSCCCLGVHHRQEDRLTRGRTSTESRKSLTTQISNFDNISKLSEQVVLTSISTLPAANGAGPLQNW
Source text: Chem. Genomics 2009, 3, 22-32.

[3] = Assay C: metabolic stability in human liver microsomes (human MST); type: in vitro ADME; conditions: pooled human liver microsomes, pH 7.6, 1 µM test compound, 37°C
Source text: Stability in human liver microsomes refers to the susceptibility of compounds to biotransformation in the context of selecting and/or designing drugs with favorable pharmacokinetic properties. The primary site of metabolism for many drugs is the liver. Human liver microsomes contain the cytochrome P450s (CYPs), and thus represent a model system for studying drug metabolization in vitro. Enhanced stability in human liver microsomes is associated with several advantages, including increased bioavailability and longer half-life, which can enable lower and less frequent dosing of patients. Thus, enhanced stability in human liver microsomes is a favorable characteristic for compounds that are to be used for drugs.
The metabolic stability of the compounds according to the invention may be investigated as follows: The metabolic degradation of the test compound is assayed at 37°C with pooled human liver microsomes. The final incubation volume of 100 µL per time point contains TRIS buffer pH 7.6 at room temperature (0.1 M), MgCl2 (5 mM), microsomal protein (1 mg/mL) and the test compound at a final concentration of 1 µM. Following a short pre-incubation period at 37°C , the reactions are initiated by addition of beta-nicotinamide adenine dinucleotide phosphate, reduced form (NADPH, 1 mM), and terminated by transferring an aliquot into solvent after different time points. After centrifugation (10000 g, 5 min), an aliquot of the supernatant is assayed by LC-MS/MS for the amount of parent compound. The half-life (t1/2) is determined by the slope of the semi-logarithmic plot of the concentration-time profile.

[4] = target: T3, OX2R (Homo sapiens, UniProt O43614); conditions: cited from earlier work; for OX2R pIC50: Table 3 of WO2016/034882; for IC50: corresponds to pIC50 of Table 3 of WO2016/034882
T3 sequence (O43614 1-444): T2 sequence (O43614 1-444)

[5] = read-out: Assay D:MDCK efflux ratio (BA/AB)
[6] = read-out: Assay C: Human MST t1/2
[7] = read-out: Data as determined in Assay C: Human MST t1/2

T1 sequence (P08183 whole entry): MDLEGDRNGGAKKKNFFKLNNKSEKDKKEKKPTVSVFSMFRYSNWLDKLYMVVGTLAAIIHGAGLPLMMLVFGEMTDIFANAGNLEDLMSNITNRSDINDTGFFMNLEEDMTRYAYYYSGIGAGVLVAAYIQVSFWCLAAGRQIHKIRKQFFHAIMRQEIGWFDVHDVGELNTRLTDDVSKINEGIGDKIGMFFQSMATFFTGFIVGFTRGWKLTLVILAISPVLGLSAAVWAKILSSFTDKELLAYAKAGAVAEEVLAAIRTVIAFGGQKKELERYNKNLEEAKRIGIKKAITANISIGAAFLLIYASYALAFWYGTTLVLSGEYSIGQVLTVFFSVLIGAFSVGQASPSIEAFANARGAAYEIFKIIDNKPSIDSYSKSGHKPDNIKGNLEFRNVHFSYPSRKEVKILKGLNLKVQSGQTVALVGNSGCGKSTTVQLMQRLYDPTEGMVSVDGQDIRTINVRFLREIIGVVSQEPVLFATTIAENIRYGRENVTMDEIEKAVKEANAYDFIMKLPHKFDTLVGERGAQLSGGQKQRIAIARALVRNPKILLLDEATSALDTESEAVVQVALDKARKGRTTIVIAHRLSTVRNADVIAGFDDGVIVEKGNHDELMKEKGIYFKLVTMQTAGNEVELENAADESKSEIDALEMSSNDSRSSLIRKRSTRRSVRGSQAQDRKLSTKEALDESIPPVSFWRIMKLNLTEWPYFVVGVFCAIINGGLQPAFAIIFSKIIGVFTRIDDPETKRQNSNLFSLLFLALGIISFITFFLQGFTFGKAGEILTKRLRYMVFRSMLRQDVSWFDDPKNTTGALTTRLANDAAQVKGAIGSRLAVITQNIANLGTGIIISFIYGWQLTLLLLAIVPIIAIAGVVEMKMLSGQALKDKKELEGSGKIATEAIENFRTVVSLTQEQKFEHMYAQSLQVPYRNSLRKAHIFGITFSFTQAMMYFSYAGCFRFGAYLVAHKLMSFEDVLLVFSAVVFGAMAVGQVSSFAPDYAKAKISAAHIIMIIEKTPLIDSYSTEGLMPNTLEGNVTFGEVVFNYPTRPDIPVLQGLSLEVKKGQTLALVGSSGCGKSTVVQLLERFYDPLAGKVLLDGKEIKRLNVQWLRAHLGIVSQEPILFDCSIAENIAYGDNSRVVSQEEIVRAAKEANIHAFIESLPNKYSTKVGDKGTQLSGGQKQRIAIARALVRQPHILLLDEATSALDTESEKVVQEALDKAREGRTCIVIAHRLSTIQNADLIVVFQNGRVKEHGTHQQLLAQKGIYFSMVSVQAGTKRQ

SMILES | efflux ratio [1, 5] | Kb ([2]; 0.5 nM Orexin A) [nM] | half-life at 1 µM [3, 6] [min] | other results
CCN(C(=O)c1ccccc1-c1noc(C)n1)[C@@H](C)CNc1ncc(C(F)(F)F)cn1 [Example 14] | < 3 | 44 | 91 | 
CCN(C(=O)c1ncccc1-c1ccccc1)[C@@H](C)CNc1ncc(C(F)(F)F)cn1 [Example 19] | < 3 | 12.5 | > 120 | 
CCN(C(=O)c1nc(C)ccc1-c1ncccn1)[C@@H](C)Cn1nnc(-c2ccc(F)cc2)n1 [Example 69 in WO2013/187466, reference compound] |  |  |  | half-life at 1 µM [3, 7]: 23 min
CCN(C(=O)c1cc(C#N)ccc1-n1nccn1)[C@@H](C)CNc1ncc(C(F)(F)F)cn1 [Example 8] | 3 to 5 | 33.4 | > 120 | 
CC[C@@H](CNc1ncc(C(F)(F)F)cn1)N(CC)C(=O)c1nc(C)ccc1-n1nccn1 [Example 73 in WO2016/034882] |  |  | 11 | OX2R pIC50 [4]: < 6.0; IC50 [4]: > 1000 nM
CCN(C(=O)c1nc(C)ccc1-n1cccn1)[C@@H](C)CNc1ncc(C(F)(F)F)cn1 [Example 12] | < 3 | 129 | 65 | 
CCN(C(=O)c1c(F)cccc1-n1nccn1)[C@@H](C)CNc1ncc(C(F)(F)F)cn1 [Example 7] | < 3 | 33.4 | 76 | 
CCN(C(=O)c1cc(F)ccc1-c1ncccn1)[C@@H](C)Cn1nnc(-c2ccc(F)cc2)n1 [Example 70 in WO2013/187466, reference compound] |  |  |  | half-life at 1 µM [3, 7]: 16 min
CCN(C(=O)c1cncnc1-c1ccccc1)[C@@H](C)CNc1ncc(C(F)(F)F)cn1 [Example 20] | < 3 | 68 | 43 to 100 | 
CCN(C(=O)c1ccccc1-n1nccn1)[C@@H](C)CNc1cnc(C(F)(F)F)cn1 [Example 22] | 3 to 5 | 7.37 | > 120 | 
CCN(C(=O)c1cc(F)cnc1-n1nccn1)[C@@H](C)CNc1ncc(C(F)(F)F)cn1 [Example 10] | < 3 | 1060 | > 120 | 
Cc1nc(C(=O)N(C)CCNc2ncc(Br)cn2)c(-c2ccc(F)cc2)s1 [Example 6 in WO03/051872, reference compound] |  |  | 8 | efflux ratio ([1]; read-out: Assay D: MDCK efflux ratio (BA/AB)): 0.8; Kb ([2]; 0.5 nM Orexin A concentration, read-out: Assay B: OX2R Kb): 101 nM
CCN(C(=O)c1ccc(F)c(F)c1-n1nccn1)[C@@H](C)CNc1ncc(C(F)(F)F)cn1 [Example 4] | < 3 | 46.9 | 95 | 
CCN(C(=O)c1nccnc1-c1ccccc1)[C@@H](C)CNc1ncc(C(F)(F)F)cn1 [Example 21] | < 3 | 55.9 | > 120 | 
CCN(C(=O)c1cc(F)ccc1-c1ncccn1)[C@@H](C)CNc1ncc(C(F)(F)F)cn1 [Example 15] | < 3 | 22.9 | > 120 | 
CCN(C(=O)c1c(F)cccc1-c1ncccn1)[C@@H](C)CNc1ncc(C(F)(F)F)cn1 [Example 13] | < 3 | 62 | > 120 | 
CCN(C(=O)c1ccc(F)cc1-c1nnc(C)o1)[C@@H](C)CNc1cnc(C(F)(F)F)cn1 [Example 23] | 3 to 5 | 222 | > 120 | 
CCN(C(=O)c1ccc(F)cc1-n1nccn1)[C@@H](C)CNc1ncc(C(F)(F)F)cn1 [Example 2] | < 3 | 64.5 | 43 | 
CC[C@@H](CNc1ncc(C(F)(F)F)cn1)N(C)C(=O)c1nc(C)ccc1-c1ncccn1 [Example 84 in WO2016/034882] | < 3 |  | 41 | OX2R pIC50 [4]: 6.0; IC50 [4]: 1000 nM
CCN(C(=O)c1cccc(F)c1-n1nccn1)[C@@H](C)CNc1cnc(C(F)(F)F)cn1 [Example 24] | 3 to 5 | 10 | 61 | 
CCN(C(=O)c1ccc(F)cc1-c1ncccn1)[C@@H](C)CNc1ncc(C(F)(F)F)cn1 [Example 16] | < 3 | 76.8 | 100 | 
C[C@@H](CNc1ccc(Cl)cn1)N(C)C(=O)c1ccccc1-c1ccccc1 [Example 14 in WO2016/034882, reference compound] |  |  | 2 | 
CCN(C(=O)c1cccc(F)c1-c1ncccn1)[C@@H](C)CNc1ncc(C(F)(F)F)cn1 [Example 11] | 3 to 5 | 19.3 | > 120 | 
CCN(C(=O)c1cc(F)ccc1-n1nccn1)[C@@H](C)CNc1ncc(C(F)(F)F)cn1 [Example 5] | < 3 | 35.3 | 120 | 
